{"source": "patent US11590117B2", "about": "“Treatment of a hematologic malignancy with 2-(4-chlorophenyl)-n-((2-(2,6-dioxopiperidin-3-yl)-1-oxoisoindolin-5-yl)methyl)-2,2-difluoroacetamide” (priority 2016, dated 2023)", "key": {"[1]": {"test_system": "Red-labeled AML cell lines", "assay": "IncuCyte live cell imaging of cell viability, sub-panel of twelve Red-labeled AML cell lines", "type": "cell-based", "details": "Homo sapiens, 96 h", "description": "Derivation of Red-labeled Acute Myeloid Leukemia Cell Lines: Twelve cell lines, including AML-193, HL-60, KG-1, ML-2, MOLM-13, MV-4-11, NOMO-1, OCI-AML2, OCI-AML3, SIG-M5, TF-1, and THP-1, were stably transduced with Red lentivirus. Cells were plated in 6-well plates in growth media, incubated with 8 µg/mL polybrene (EMD Millipore Cat no. TR-1003-G) followed by infection with CellPlayer™ NucLight™ Red-lentiviral particles (Essen Biosciences Cat no. 4478) at a multiplicity of infectivity (MOI) of 0.5 to 2.5 for 24 hours. MOI refers to the ratio of virus particles to cells. Virus-containing media was replaced with fresh growth media and incubated for an additional 24 to 48 hours, followed by selection with Zeocin (500 to 2000 μg/mL), a derivative of bleomycin (Life Technologies-Invitrogen Cat no. R250-01). Cells were selected with fresh Zeocin every 3 to 4 days for 3 to 8 weeks. Cells were periodically viewed using fluorescent microscopy for nuclear-restricted red fluorescence. Zeocin selection was terminated once the population was confirmed to stably fluoresce red. All Red-labeled cell lines were acclimated to EMEM containing 20% FBS, with or without GM-CSF supplementation, allowing for optimal live cell imaging.\nIncubation of Cell Cultures with Compound 1: Compound 1 was provided for studies by Celgene chemistry group at a stock concentration of 30 mM in 20 μL dimethyl sulfoxide (DMSO) frozen. Costar 96-well cell culture plates (Corning Cat no. 3595) were coated with 100 μL of 10 µg/mL fibronectin (Sigma-Aldrich Cat no. F1141) for 4 hours at 37° C. and immediately used or refrigerated overnight for later use. Cells (3000 to 6000 cells) were plated in growth medi in fibronectin-coated 96-well plates and incubated for a minimum of a few hours to overnight. Cells were incubated with a 12-point concentration response in triplicate with Compound 1 ([…]) including DMSO and Media controls. A 3-fold serial dilution of Compound 1 starting from a concentration of 200 μM in 0.6% DMSO (diluted in Media) was performed. For most sensitive cell lines, a 3-fold serial dilution of Compound 1 starting from a concentration of 20 μM in 0.6% DMSO (diluted in media) was performed. A volume of 5 μL or 10 μL for each dilution was added to 100 μL or 200 μL cells, respectively (0.3% DMSO final) and incubated for live cell imaging.\nLive Cell Imaging on IncuCyte Zoom: Following incubation of cells with Compound 1, diluted Caspase 3/7 reagent (Essen Biosciences Cat no. 4440) is added to each well. […] Caspase-3/7 activation was quantified using the IncuCyte™ ZOOM basic analyzer. […]\nTwelve Red-labeled human AML cell lines, established as described above, were incubated with Compound 1 dose range (0 to 10 μM) and Red fluorescence or Object count was imaged over time, as described above. […]"}, "AML cell lines": {"test_system": "AML cell lines", "assay": "CellTiter-Glo (CTG) cell proliferation assay, 72 hours, panel of 11 AML cell lines", "type": "cell-based", "details": "Homo sapiens, 10 out of the 11 AML cell lines tested (sensitive lines), read-out: antiproliferative IC50 values (range)", "description": "Preparation of Solutions of Test Article: Compounds were plated into black 384-well plates (Corning Inc.) to a final DMSO volume of 0.1% assuming a maximal volume of 50 μL. A 10-point dose response starting at 10 μM with a 1:3 dilution was printed in duplicate by acoustic dispense using the EDC ATS-100 platform.\nCell Proliferation Assays: The effect of Compound 1 on the proliferation/viability of the hematological cell lines (Table 1 Table, Table 2 and Table 3), THLE-2, or PBMCs was assessed after 72 hours incubation using CTG (Promega), according to manufacturer's instructions. Hematological cell lines were dispensed into compound plates by a Multidrop™ Combi Reagent Dispenser (Thermo Scientific, Waltham, Mass.) at a concentration of 0.1 to 0.3×10^6 cells per mL in a 50 μL total volume. […] At 72 hours, 25 μL per well of CTG was dispensed by a Multidrop™ Combi Reagent Dispenser and adenosine triphosphate (ATP) release by viable cells was measured as relative luminescence units after 30 minutes using the Envision platform.\nResults. […] Compound 1 inhibited cell proliferation in 10 out of 11 AML cell lines assessed, as determined by the quantitative assessment of ATP levels present in the media after 72 hours. […]\nProliferation was assessed using the CellTitre-Glo® assay. […] The IC50 for inhibition of cell growth by Compound 1 was determined for each cell line using ActivityBase software."}}, "note": "Where two headings read alike, the source gives them in different places."}
{"molecule": "O=C1CCC(N2Cc3cc(CNC(=O)C(F)(F)c4ccc(Cl)cc4)ccc3C2=O)C(=O)N1", "note": "(centres unmarked) [Compound 1, 2-(4-chlorophenyl)-N-((2-(2,6-dioxopiperidin-3-yl)-1-oxoisoindolin-5-yl)methyl)-2,2-difluoroacetamide]", "values": [{"measurement": "EC50", "setting": "[1]; four moderately sensitive cell lines (TF-1, THP-1, SIG-M5, OCI-AML3), read-out: cell viability EC50 96hr (range)", "value": "58 to 186", "unit": "nM"}, {"measurement": "EC50", "setting": "[1]; four moderately sensitive cell lines, read-out: cell viability average EC50 96hr", "value": 121, "unit": "nM"}, {"measurement": "EC50", "setting": "[1]; seven highly sensitive cell lines (AML-193, ML-2, HL-60, KG-1, NOMO-1, MV-4-11, OCI-AML2), read-out: cell viability EC50 96hr (range)", "value": "2 to 40", "unit": "nM"}, {"measurement": "EC50", "setting": "[1]; seven highly sensitive cell lines, read-out: cell viability average EC50 96hr", "value": 15, "unit": "nM"}, {"measurement": "IC50", "setting": "AML cell lines", "value": "3 to 75", "unit": "nM"}]}
